Measurements from patent US20220249441A1, “Homodimeric Tobramycin Adjuvant Repurposes Novobiocin as an Effective Antibacterial Agent Against Gram-Negative Bacteria” (priority 2019, published 2022).

Assays:
P. aeruginosa = experiment: Checkerboard assay (antibiotic + adjuvant combination MIC); type: cell-based, Pseudomonas aeruginosa; settings: compound at 8 μM
Experimental: Antimicrobial Susceptibility Assay. The in vitro antimicrobial activity of all compounds/antibiotics against a panel of bacteria was evaluated by microbroth dilution method in accordance with the Clinical and Laboratory Standards Institute (CLSI) guidelines (using ATCC strains as quality control strains) (54). Overnight grown bacterial cultures were diluted in saline to achieve a 0.5 McFarland turbidity, followed by 1:50 dilution in Mueller-Hinton broth (MHB) for inoculation to a final concentration of approximately 5×10^5 CFU/mL. […] The lowest concentration that prevented the visible growth of bacteria was defined as the MIC for each antimicrobial agent. The broth with or without bacterial cells was used as positive or negative control, respectively.
Checkerboard Assay. Combination studies with different antibiotics were performed in 96-well plates as previously described (19). Briefly, the antibiotic of interest was serially diluted in MHB along the abscissa while the adjuvant (tobramycin homodimer) was serially diluted in MHB along the ordinate. This creates a 10×7 matrices wherein each well consists of a combination of different antibiotic and adjuvant concentrations. Overnight grown bacterial cultures were diluted in saline to achieve a 0.5 McFarland turbidity, followed by 1:50 dilution in Mueller-Hinton broth (MHB) for inoculation to a final concentration of approximately 5×10^5 CFU/mL. […] MIC was recorded as wells with the lowest concentration of drugs with no bacterial growth. The fractional inhibitory concentration (FIC) for each antibiotic was calculated by dividing the MIC of the antibiotic in the presence of adjuvant by the MIC of the antibiotic alone. Similarly, the FIC of adjuvant was calculated by dividing the MIC of the adjuvant in the presence of antibiotic by the MIC of the adjuvant alone. FIC index is the sum of both FICs. FIC indices of ≤0.5 were deemed synergistic; >0.5-4, no interaction; and >4, antagonistic.

[1] = tested on: P. aeruginosa PAO1 and efflux deficient mutants, MDR/XDR isolates; experiment: microbe, parasite or virus in culture; type: cell-based, Pseudomonas aeruginosa
Experimental: Antimicrobial Susceptibility Assay. The in vitro antimicrobial activity of all compounds/antibiotics against a panel of bacteria was evaluated by microbroth dilution method in accordance with the Clinical and Laboratory Standards Institute (CLSI) guidelines (using ATCC strains as quality control strains) (54). […] The broth with or without bacterial cells was used as positive or negative control, respectively.

NC[C@H]1O[C@H](O[C@H]2[C@H](OCCCCc3cn(CCCCO[C@@H]4[C@@H](O[C@H]5O[C@H](CO)[C@@H](O)[C@H](N)[C@H]5O)[C@H](N)C[C@H](N)[C@H]4O[C@H]4O[C@H](CN)[C@@H](O)C[C@H]4N)nn3)[C@@H](O[C@H]3O[C@H](CO)[C@@H](O)[C@H](N)[C@H]3O)[C@H](N)C[C@@H]2N)[C@H](N)C[C@@H]1O.O=C(O)C(F)(F)F.O=C(O)C(F)(F)F.O=C(O)C(F)(F)F.O=C(O)C(F)(F)F.O=C(O)C(F)(F)F.O=C(O)C(F)(F)F.O=C(O)C(F)(F)F.O=C(O)C(F)(F)F.O=C(O)C(F)(F)F.O=C(O)C(F)(F)F [Compound 23, Tobramycin homodimer] gave an MIC of Aztreonam + compound (P. aeruginosa; P. aeruginosa PAO1) of 0.25 µg/mL, an MIC of Ceftazidime + compound (P. aeruginosa; P. aeruginosa PAO1) of 0.25 µg/mL and an MIC of Imipenem + compound (P. aeruginosa; P. aeruginosa PAO1) of 1 µg/mL. For the same compound, the MIC of Piperacillin + compound (P. aeruginosa; P. aeruginosa PAO1) was 0.5 µg/mL, the MIC of ATM in the presence of compound (P. aeruginosa; PA 259-96918) was 8 µg/mL and the MIC of CAZ in the presence of compound (P. aeruginosa; PA 259-96918) was 128 µg/mL. It also gave an MIC of IPM in the presence of compound (P. aeruginosa; PA 259-96918) of 32 µg/mL, an MIC of ATM in the presence of compound (P. aeruginosa; PA 260-97103) of 16 µg/mL and an MIC of CAZ in the presence of compound (P. aeruginosa; PA 260-97103) of 8 µg/mL. For the same compound, the MIC of IPM in the presence of compound (P. aeruginosa; PA 260-97103) was 16 µg/mL, the MIC of ATM in the presence of compound (P. aeruginosa; PA 262-101856) was 8 µg/mL and the MIC of CAZ in the presence of compound (P. aeruginosa; PA 262-101856) was 2 µg/mL. For the same compound, the MIC of IPM in the presence of compound (P. aeruginosa; PA 262-101856) was 2 µg/mL, the MIC of ATM in the presence of compound (P. aeruginosa; PA 264-104354) was 8 µg/mL and the MIC of CAZ in the presence of compound (P. aeruginosa; PA 264-104354) was 32 µg/mL. The MIC of IPM in the presence of compound (P. aeruginosa; PA 264-104354) was 4 µg/mL, the MIC of ATM in the presence of compound (P. aeruginosa; PA 86052) was 8 µg/mL and the MIC of CAZ in the presence of compound (P. aeruginosa; PA 86052) was 64 µg/mL. It also gave an MIC of IPM in the presence of compound (P. aeruginosa; PA 86052) of 16 µg/mL, an MIC of ATM in the presence of compound (P. aeruginosa; PA 88949) of 32 µg/mL and an MIC of CAZ in the presence of compound (P. aeruginosa; PA 88949) of 16 µg/mL. The MIC of IPM in the presence of compound (P. aeruginosa; PA 88949) was 4 µg/mL, the MIC of ATM in the presence of compound (P. aeruginosa; PA 91433) was 4 µg/mL and the MIC of CAZ in the presence of compound (P. aeruginosa; PA 91433) was 1 µg/mL. It also gave an MIC of IPM in the presence of compound (P. aeruginosa; PA 91433) of 4 µg/mL, an MIC of ATM in the presence of compound (P. aeruginosa; PA 100036) of 2 µg/mL and an MIC of CAZ in the presence of compound (P. aeruginosa; PA 100036) of 2 µg/mL. The MIC of IPM in the presence of compound (P. aeruginosa; PA 100036) was 4 µg/mL, the MIC of ATM in the presence of compound (P. aeruginosa; PA 101243) was 16 µg/mL and the MIC of CAZ in the presence of compound (P. aeruginosa; PA 101243) was 64 µg/mL. For the same compound, the MIC of IPM in the presence of compound (P. aeruginosa; PA 101243) was 8 µg/mL, the MIC of ATM in the presence of compound (P. aeruginosa; PA 101885) was 4 µg/mL and the MIC of CAZ in the presence of compound (P. aeruginosa; PA 101885) was 2 µg/mL. The MIC of IPM in the presence of compound (P. aeruginosa; PA 101885) was 4 µg/mL, the MIC of ATM in the presence of compound (P. aeruginosa; PA 107092) was 16 µg/mL and the MIC of CAZ in the presence of compound (P. aeruginosa; PA 107092) was 32 µg/mL. It also gave an MIC of IPM in the presence of compound (P. aeruginosa; PA 107092) of 16 µg/mL, an MIC of ATM in the presence of compound (P. aeruginosa; PA 108590) of 8 µg/mL and an MIC of CAZ in the presence of compound (P. aeruginosa; PA 108590) of 8 µg/mL. For the same compound, the MIC of IPM in the presence of compound (P. aeruginosa; PA 108590) was 4 µg/mL, the MIC of ATM in the presence of compound (P. aeruginosa; PA 109084) was 8 µg/mL and the MIC of CAZ in the presence of compound (P. aeruginosa; PA 109084) was 32 µg/mL. For the same compound, the MIC of IPM in the presence of compound (P. aeruginosa; PA 109084) was 8 µg/mL, the MIC of ATM in the presence of compound (P. aeruginosa; PA 114228) was 4 µg/mL and the MIC of CAZ in the presence of compound (P. aeruginosa; PA 114228) was 1 µg/mL. It also gave an MIC of IPM in the presence of compound (P. aeruginosa; PA 114228) of 0.5 µg/mL, an MIC of ATM in the presence of compound (P. aeruginosa; PA O200 (efflux-deficient)) of 0.03 µg/mL and an MIC of CAZ in the presence of compound (P. aeruginosa; PA O200 (efflux-deficient)) of 0.13 µg/mL. For the same compound, the MIC of IPM in the presence of compound (P. aeruginosa; PA O200 (efflux-deficient)) was 1 µg/mL, the MIC of ATM in the presence of compound (P. aeruginosa; PA O750 (efflux-deficient)) was 0.06 µg/mL and the MIC of CAZ in the presence of compound (P. aeruginosa; PA O750 (efflux-deficient)) was 0.06 µg/mL. For the same compound, the MIC of IPM in the presence of compound (P. aeruginosa; PA O750 (efflux-deficient)) was 1 µg/mL, the MIC of ATM in the presence of compound (P. aeruginosa; PAO1) was 0.25 µg/mL and the MIC of CAZ in the presence of compound (P. aeruginosa; PAO1) was 0.25 µg/mL. The MIC of IPM in the presence of compound (P. aeruginosa; PAO1) was 1 µg/mL, the “resistant isolates in which CLSI breakpoint was attained for aztreonam” value (P. aeruginosa) was “eleven out of thirteen” and the “resistant isolates in which CLSI breakpoint was attained for ceftazidime” value (P. aeruginosa) was “four out of eleven”. The “resistant isolates in which CLSI breakpoint was attained for imipenem” value (P. aeruginosa) was “five out of seventeen”, the MIC ([1]; PAO1 (wild-type)) was over 128 µg/mL and the MIC ([1]; PAO200 (first column so headed)) was over 128 µg/mL. The MIC ([1]; PAO200 (second column so headed)) was over 128 µg/mL.
